In paper PMC5323086, “Ionization Constants of the Six Dichloroanilines and the Six Dichlorophenols in Aqueous Solution at 25 °C” (Journal of Research of the National Bureau of Standards. …, 1964):
Like-named read-outs stand apart in the source and are kept apart here.

What was measured:
[1] = pK calculated from monosubstituted compounds assuming additivity of substituent effects
[2] = pKA calculated from pKP of the corresponding phenol by linear relation eq (8)
[3] = cited from earlier work
[4] = aqueous solution at 25°; final value, standard deviation in parentheses; 2,6-compound: limiting value at CHCl=0
[5] = pK calculated by the Hammett relation, eq (5) and eq (6)
[6] = pK values quoted from the literature; assay type: physicochemical; conditions: Murray and Gordon value raised by 0.22
[7] = pK (calc.)−pK (obs.), pK (calc.) from monosubstituted compounds

Oc1cccc(Cl)c1Cl [2,3-Dichlorophenol]
ΔpK(1) Dichlorophenol [1]: −0.05

Cc1cc(N)ccc1[N+](=O)[O-] [4-nitro-m-toluidine]
discrepancy between observed and predicted pK, eq (8) [2]: 0.17 | pK ([3]; Wepster): 1.50

Nc1cc(Cl)ccc1Cl [2,5-Dichloroaniline]
melting point: 50 to 50.5 °C | pKA ([3]; Gillois and Rumpf): 1.57

Nc1cccc(Cl)c1Cl [2,3-Dichloroaniline]
ΔpK(1) Dichloroaniline [1, 7]: 0.16

Nc1c(Cl)cccc1Cl [2,6-Dichloroaniline]
pK Dichloroaniline [4]: 0.422 | pKa (physchem): 0.482 | ΔpK(1) Dichloroaniline [1, 7]: .28

Cc1ccc(C)c(O)c1 [2,5-xylenol]
pK [3]: 10.40

Nc1cc(Cl)cc(Cl)c1 [3,5-Dichloroaniline]
difference of Hammett-calculated pK from the observed value [5]: 0.02 | ΔpK(1) Dichloroaniline [1]: .06

O=C(O)c1ccc(Cl)c(Cl)c1 [3,4-dichlorobenzoic acid]
ionization constant (pK) [3]: 3.64

Oc1c(Cl)cccc1Cl [2,6-Dichlorophenol]
ΔpK(1) Dichlorophenol [1]: .27 | pKP adjusted value [6]: 7.01

Oc1cc(Cl)ccc1Cl [2,5-Dichlorophenol]
ΔpK(1) Dichlorophenol [1]: .15

Oc1ccc(Cl)cc1Cl [2,4-Dichlorophenol]
ΔpK(1) Dichlorophenol [1]: .06

Nc1ccc(Cl)cc1Cl [2,4-Dichloroaniline, 2,4-Dichloroaniline]
ΔpK(1) Dichloroaniline [1, 7]: .01

O=C(O)c1cc(Cl)cc(Cl)c1 [3,5-dichlorobenzoic acid]
ionization constant (pK) [3]: 3.43

Oc1cc(Cl)cc(Cl)c1 [3,5-Dichlorophenol]
difference of Hammett-calculated pK from the observed value [5]: 0.01 | ΔpK(1) Dichlorophenol [1]: .07

Nc1ccc(Cl)cc1[N+](=O)[O-] [4-chloro-2-nitroaniline]
discrepancy between observed and predicted pK, eq (8) [2]: 1.03

Oc1ccc(Cl)c(Cl)c1 [3,4-Dichlorophenol]
difference of Hammett-calculated pK from the observed value [5]: 0.08 | ΔpK(1) Dichlorophenol [1]: −.04

Nc1ccc(Cl)c(Cl)c1 [3,4-Dichloroaniline]
ΔpK(1) Dichloroaniline [1]: −.07
